PubChem BioAssay (NCI)
Several values for one entry are separate records, joined by “and”; a condition that tells them apart may be missing. Equal entries are not always repeated.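 Cultured in 96-well plates, cells were exposed to test compound for 48 hours across five concentrations. Abbreviation: GI50, concentration required for 50% inhibition of growth. The concentration for full growth arrest is given as TGI.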

How the values were obtained:
Experiment in all cases: growth of human tumour cells (NCI), 48 h
HCT-15 colon = tested on: HCT-15 colon
HL-60(TB) leukemia = tested on: HL-60(TB) leukemia
HOP-62 NSCLC = tested on: HOP-62 NSCLC
HT29 colon = tested on: HT29 colon
NCI/ADR-RES ovarian = tested on: NCI/ADR-RES ovarian
OVCAR-3 ovarian = tested on: OVCAR-3 ovarian
OVCAR-5 ovarian = tested on: OVCAR-5 ovarian
SNB-75 CNS = tested on: SNB-75 CNS
SW-620 colon = tested on: SW-620 colon
U251 CNS = tested on: U251 CNS

Structure (SMILES) | GI50 (HCT-15 colon) | TGI (HCT-15 colon) | GI50 (HL-60(TB) leukemia) | TGI (HL-60(TB) leukemia) | GI50 (HOP-62 NSCLC) | TGI (HOP-62 NSCLC) | GI50 (HT29 colon) | TGI (HT29 colon) | GI50 (NCI/ADR-RES ovarian) | TGI (NCI/ADR-RES ovarian) | GI50 (OVCAR-3 ovarian) | TGI (OVCAR-3 ovarian) | GI50 (OVCAR-5 ovarian) | TGI (OVCAR-5 ovarian) | GI50 (SNB-75 CNS) | TGI (SNB-75 CNS) | GI50 (SW-620 colon) | TGI (SW-620 colon) | GI50 (U251 CNS) | TGI (U251 CNS)
COc1cc(/C=C2\C(=O)Nc3ccc(N(C)C)cc32)cc(OC)c1OC | 1.23 µM | 49.8 µM | 1.35 µM | 5.8 µM | 8.48 µM | 50.2 µM | 2.11 µM | > 100 µM | 1.93 µM | 6.27 µM | 1.41 µM | 4.29 µM | 5.86 µM | > 80.2 µM | 1.74 µM | 6.33 µM | 2.7 µM | > 100 µM | 3.1 µM | 14.6 µM
COc1ccc(N2C(=O)[C@H]3CC(C)c4c([nH]c5ccccc45)[C@H]3C2=O)cc1 (some centres not stated) | – | > 100 µM | – | 20.1 µM | – | 16.3 µM | – | 21 µM | – | 12.4 µM | – | 6.68 µM | – | > 85.6 µM | – | 12.5 µM | – | > 86.8 µM | – | 20.4 µM
Nc1ccccc1C#C/C=C\C#Cc1ccccc1 | 26.2 µM | 92.3 µM | 13.7 µM | > 100 µM | 15 µM | 33.6 µM | 21.1 µM | 44.8 µM | 14.8 µM | 32.4 µM | 4.14 µM | 14.8 µM | 15.5 µM | 51.6 µM | 13.7 µM | 58.9 µM | 19.3 µM | 41.7 µM | 19.2 µM | 46.9 µM
COc1ccccc1/C=C/C(=O)c1ccccc1 | 3.47 µM | 14.7 µM | 2.18 µM | 20.9 µM | 18.8 µM | 37 µM | 5.73 µM | 26.9 µM | 5.75 µM | > 38.2 µM | 5.92 µM | 15.2 µM | 18.9 µM | 36.5 µM | 13.1 µM | 27.1 µM | 2.66 µM | 7.08 µM | 3.69 µM | 15 µM
CC[PH+](CC)CC.O=COC1OC([S-])C(OC=O)C(OC=O)C1OC=O.[Au+] (configuration not stated) | 1.14 µM | 2.56 µM | 2.6 µM | 6.6 µM | 1.58 µM | 3.2 µM | 1.65 µM | 5.3 µM | 2.21 µM | 5.03 µM | 1.43 µM | 2.99 µM | 1.89 µM | 3.53 µM | 0.374 µM | 1.77 µM | 1.85 µM | 3.83 µM | 0.368 µM | 1.47 µM
Cc1ccc(-c2csc(NC(=O)CN3CCN(c4cc5c(cc4F)c(=O)c(C(=O)O)cn5C4CC4)CC3)n2)cc1 | 0.441 µM | > 100 µM | 1.47 µM | 3.94 µM | 0.393 µM | 14.6 µM | 0.326 µM | 6.91 µM | 3.06 µM | 34 µM | 0.457 µM | 15.7 µM | 3.48 µM | 39.8 µM | 0.448 µM | 11.2 µM | 0.95 µM | > 100 µM | 0.388 µM | 13.4 µM
Cc1cc2c(cc1Cl)SC1=NN(C)C(N(C)C)N1S2(=O)=O (configuration not stated) | > 100 µM | > 100 µM | > 100 µM | > 100 µM | > 100 µM | > 100 µM | > 100 µM | > 100 µM | > 100 µM | > 100 µM | > 100 µM | > 100 µM | > 100 µM | > 100 µM | 86.4 µM | > 100 µM | > 100 µM | > 100 µM | > 100 µM | > 100 µM
CCOc1cc(/C=N\Nc2nnc(C)n2N)c(C)cc1N(CCCl)CCCl | 1.28 µM | > 44.5 µM | 0.351 µM | 3.82 µM | 0.631 µM | 22.5 µM | 0.648 µM | 7.17 µM | 1.37 µM | 14.3 µM | 0.737 µM | 38.6 µM | 3.05 µM | > 100 µM | 0.692 µM | 6.5 µM | 0.663 µM | > 57.3 µM | 0.747 µM | > 28.5 µM
CCn1c(-c2nonc2N)nc2c(C#CC(C)(C)O)nc(OCCNC)cc21 | 9.67 µM | > 25 µM | 7.78 µM | 18.2 µM | 7.81 µM | > 25 µM | 6.21 µM | 13.8 µM | > 25 µM | > 25 µM | 6.16 µM | 17.7 µM | 7.99 µM | 24.9 µM | 7.78 µM | > 25 µM | 6.68 µM | > 25 µM | 6.5 µM | > 25 µM
COc1ccc2[nH]c(O)c(C(=Nc3ccc(N(C)C(=O)CN4CCN(C)CC4)cc3)c3ccccc3)c2c1 | 2.65 µM | 12 µM | 0.88 µM | 2.86 µM | 1.12 µM | 12.3 µM | 0.341 µM | 10.8 µM | 11.1 µM | 29.7 µM | 2.9 µM | 7.31 µM | 2.68 µM | 16.4 µM | 1.07 µM | 2.64 µM | 1.78 µM | 11.4 µM | 1.84 µM | 5.27 µM
C=CC(=O)Nc1cc2c(Nc3ccc(F)c(Cl)c3)ncnc2cc1OCCCN1CCOCC1 | 1.4 µM and 2.17 µM | 3.6 µM and > 6.04 µM | 2 µM and 1.73 µM | 4.88 µM and 7.33 µM | 3.27 µM and > 5.63 µM | 13.9 µM and > 10 µM | 1.64 µM and 2.26 µM | 3.48 µM and > 8.38 µM | 1.71 µM and 2.36 µM | 8.79 µM and > 10 µM | 1.52 µM and 1.3 µM | 4.63 µM and > 8.9 µM | 0.879 µM and 5.82 µM | 16.3 µM and > 10 µM | 0.47 µM and 1.06 µM | 4.54 µM and > 7.95 µM | 1.81 µM and 2.62 µM | 3.59 µM and > 6.13 µM | 3.57 µM and > 6.22 µM | 14.9 µM and > 10 µM
CN(C)CCCNC(=O)c1ccc2c(c1)oc1cc3ccccc3c(=O)n12 | 12.3 µM | > 50 µM | 11 µM | 30.8 µM | > 50 µM | > 50 µM | 12.7 µM | 27.7 µM | > 50 µM | > 50 µM | 9.24 µM | 23.9 µM | – | – | 9.44 µM | 22 µM | 15.5 µM | > 50 µM | 11.1 µM | 22.8 µM
O=c1cccc(C2CC(CO)C3CCCCN3C2)[nH]1 (configuration not stated) | – | > 100 µM | – | > 100 µM | – | – | – | > 100 µM | – | > 100 µM | – | > 100 µM | – | > 100 µM | – | > 100 µM | – | > 100 µM | – | > 100 µM
